Results filed as inconclusive are left out. Calls of active or inactive are those of the source. The rule behind the calls is not given here.
target: Tyrosine-protein phosphatase YopH [Yersinia enterocolitica]; assay: potency against Yersinia YopH phosphatase – biochemical, 10-point dose range, dose response (AID 1261); details: YopH phosphatase enzymatic assay, IC50, 3 runs

| Compound | IC50 |
| --- | --- |
| CCN(CC)c1ccc(/C=N/Nc2cccc(C)c2)c(O)c1 | > 50 µM (inactive) |
| CCOC(=O)C1=C(C)NC2(O)c3ccccc3C(=O)C12O (stereo not given) | > 50 µM (inactive) |
| CC1=C(C(=O)OCC(C)C)C2(O)C(=O)c3ccccc3C2(O)N1 (stereo not given) | > 50 µM (inactive) |
| COc1ccc(NC2=C(NCCO)C(=O)c3ccccc3C2=O)cc1 | > 50 µM (inactive) |
| CC1=C(C)C(=O)C(CCCCC#CCCCC#CCO)=C(C)C1=O | > 50 µM (inactive) |
| C=CCOC(=O)C1=C(C)NC2(O)c3ccccc3C(=O)C12O (stereo not given) | > 50 µM (inactive) |
| CSc1nsc(/C=C/Nc2ccc(Cl)cc2)c1C#N | > 50 µM (inactive) |
| Cc1ccc(NC2=C(NCCO)C(=O)c3ccccc3C2=O)cc1 | > 50 µM (inactive) |
| CCOC(=O)/C(N=Nc1ccc(F)cc1)=C(/O)c1ccc([N+](=O)[O-])cc1 | > 50 µM (inactive) |
| CCN(CC)c1ccc(/C=N/Nc2ccccc2)c(O)c1 | > 50 µM (inactive) |

same assay, conditions: YopH phosphatase enzymatic assay, IC50, 3 runs; inhibition; at 50 µM; stronger effect = higher value

| Compound | inhibition [%] |
| --- | --- |
| O=[N+]([O-])c1ccc(-c2csc3[n+]2CCS3)cc1 | 20.8 |
| Cn1c(COc2ccccc2)nnc1SCc1nc2ccccc2[nH]1 | -3.78 |
| C#CCn1cc(C=C2C(=O)c3ccccc3C2=O)c2ccccc21 | 11.1 |
| O=C(NC(Cc1c[nH]c2ccccc12)c1nnc2n1CCCCC2)c1cccs1 (stereo not given) | 0.82 |
| O=C1C(Nc2cccc(O)c2)=C(N2CCCCC2)C(=O)c2ccccc21 | 35.8 |
| CCOC(=O)Oc1ccc2oc(=O)cc(C)c2c1 | -13.7 |
| O=C(O)c1ccc(NC2=C(N3CCOCC3)C(=O)c3ccccc3C2=O)cc1 | -0.899 |
| CCN(CC)c1ccc(/C=N/Nc2cccc(C)c2)c(O)c1 | 9.95 |
| O=C1CCC(=O)N1CC(=O)N1c2ccccc2Sc2ccccc21 | -12.5 |
| O=C(O)c1ccccc1SCC(=O)N1c2ccccc2Sc2ccccc21 | -57.4 |
| COc1ccc(N2C(=O)[C@@H]3[C@H](C2=O)[C@H]2c4ccccc4C=CN2[C@@H]3C(C)=O)cc1 | -6.89 |
| CCOC(=O)c1nc(C)n(-c2ccc(Cl)cc2)n1 | -5.92 |
| CCOC(=O)C1=C(C)NC2(O)c3ccccc3C(=O)C12O (stereo not given) | 40 |
| CCCNc1nc2c(c(=O)[nH]c(=O)n2C)n1Cc1ccc(F)cc1 | -11.6 |
| O=C(O[C@@H]1OC2COC(=O)c3cc(O)c(O)c(O)c3-c3c(cc(O)c(O)c3O)C(=O)O[C@@H]([C@H]1O)[C@@H]2O)c1cc(O)c(O)c(O)c1 | -0.367 |
| CCOc1ccc(-c2nnc3ccc(SCC(=O)Nc4nc5ccccc5s4)nn23)cc1 | -11.8 |
| O=C(Nc1nnc(C(F)(F)F)s1)c1ccc(N2C(=O)C3C4C=CC(C4)C3C2=O)cc1 (stereo not given) | -8.43 |
| O=C(NN=c1c(=O)c2ccccc2c1=O)c1ccccc1 | -14.5 |
| CC(C)(C)c1cc(OC(=O)c2ccncc2)ccc1O | 30.2 |
| CC(=O)Nc1ccc(-c2nnc(SCC(=O)n3c4c(c5ccccc53)CCCC4)n2C)cc1 | -7.8 |
| CCOC(=O)c1ccc(NS(=O)(=O)c2cc(-c3nnnn3C(C)C)ccc2OC)cc1 | -7.2 |
| CC(=O)N1C(=O)/C(=C2\SC(=S)N(c3c(C)n(C)n(-c4ccccc4)c3=O)C2=O)c2ccccc21 | 4.95 |
| Cc1ccc2c(C)[nH]c(=O)cc2c1 | 0.968 |
| CCN1CCC2(CC1)N=C(c1ccc(F)cc1)C(=S)N2C(=O)c1ccc(C)cc1 | 28.6 |
| CC1=CC(=C(C#N)c2nc3ccccc3s2)C=C(C)N1c1ccc(F)cc1F | 1.55 |
| Cc1cccc(OCCCCc2c(C)n[nH]c2C)c1 | -10.5 |
| CCO/C=C1/C(=O)N(Cc2ccccc2)C(=O)c2ccccc21 | 49.7 |

| Compound | inhibition [%] |
| --- | --- |
| O=S(=O)(c1ccc2ccccc2c1)N1CCC(c2nc(-c3ccncc3)no2)CC1 | -14.8 |
| Nc1nnc2c(n1)CCCC2 | 23 |
| CCOc1ccc(C(=S)N2CCOCC2)cc1OC | -1.37 |
| CCOC(=O)N1CCN(C(=O)Cn2c(C)cc3ccccc3c2=O)CC1 | -14.1 |
| Cc1ccc(N2C(=O)[C@@H]3[C@H](C2=O)C2c4ccccc4C=CN2[C@@H]3C(=O)c2ccco2)c(C)c1 (stereo not given in full) | 20.7 |
| CCn1c(-c2cc(OC)c(OC)c(OC)c2)n[nH]c1=S | -24 |
| Cc1cc(C)nc(SCC(=O)Oc2ccc3oc(=O)cc(C)c3c2)n1 | -24.4 |
| CC1=C(C(=O)OCC(C)C)C2(O)C(=O)c3ccccc3C2(O)N1 (stereo not given) | 31.7 |
| Cc1[nH]n(-c2ccccc2)c(=O)c1C(C[N+](=O)[O-])c1ccc(Cl)cc1 (stereo not given) | -6.86 |
| O=C(O)C1OC(Oc2cc3oc(-c4ccccc4)cc(=O)c3c(O)c2O)C(O)C(O)C1O (stereo not given) | -26.6 |
| CC1CCN(CCC(=O)N2CCCc3c2c(=O)oc2ccc(O)cc32)CC1 | -1.24 |
| CCOC(=O)c1oc2ccc(Br)cc2c1CSc1nnc(C)s1 | -12.1 |
| N#Cc1c(N)n(CCNC(=O)c2cccs2)c2nc3ccccc3nc12 | -16.9 |
| COc1ccc(NC2=C(NCCO)C(=O)c3ccccc3C2=O)cc1 | 20.2 |
| [O-]/[N+](=C\c1ccc(F)cc1)c1ccccc1 | 2.44 |
| CCOC(=O)C(NC(=O)Nc1ccccc1)(OCC)C(F)(F)F (stereo not given) | 2.58 |
| CC(=O)OCCCNc1cc(SCc2ccco2)c2nonc2c1[N+](=O)[O-] | -2.61 |
| O=C(CSc1nnc(-c2ccccc2)o1)n1c2c(c3ccccc31)CCCC2 | -10.9 |
| COC(=O)C1C(C(C)C)N(c2ccccc2)OC1(C)O (stereo not given) | -0.943 |
| COc1ccccc1NC(=O)N1CCC(C(=O)c2ccc(F)cc2)CC1 | -5.37 |
| CCOC(=O)COc1cc(=O)n(CC)c2ccccc12 | -3.72 |
| COC(=O)CSc1nnc(CNC(=O)c2cccc(C)c2)n1-c1ccccc1OC | -14.7 |
| CC(=O)NC1=C(N(C)C2CCS(=O)(=O)C2)C(=O)c2ccccc2C1=O (stereo not given) | 9.79 |
| COc1ccc2cc(-c3cc(C(=O)OCC(=O)NC4CCS(=O)(=O)C4)c4ccccc4n3)ccc2c1 (stereo not given) | 3.98 |
| COC(=O)Cc1cnc(NC(=O)C2C3CCC(C3)C2C(=O)O)s1 (stereo not given) | -18.2 |
| Oc1ccc(C=Nc2ccc3ncccc3c2)c(O)c1 | -3.62 |
| O=C1C(Nc2ccccc2)=C(N2CCCCC2)C(=O)c2ccccc21 | 41.9 |

| Compound | inhibition [%] |
| --- | --- |
| CCO/C=C1\C(=O)N(c2ccccc2)C(=O)c2ccccc21 | 39.1 |
| Cc1oc2ccccc2c1-c1cn2c(n1)SCC2 | -2.41 |
| N#Cc1ccccc1Cn1cc(C#N)c2ccccc21 | -11.8 |
| CC(C(=O)N1CCCc2c1c(=O)oc1ccc(O)cc21)N1CCc2ccccc2C1 (stereo not given) | 0.0785 |
| CCOC(=O)c1c(C)oc2c1c(C=NCc1ccccn1)c(O)c1ccccc12 | 2.53 |
| CN1C(=O)C(Cc2cccc3ccccc23)C(=O)N(C)C1=O | 20.5 |
| O=C(c1cccs1)N1CCN=C1SCc1cccnc1 | -11.7 |
| CC1=C(C)C(=O)C(CCCCC#CCCCC#CCO)=C(C)C1=O | 0.676 |
| COCCCNC(=O)C1CCCN(C(=O)Nc2ccc(OC)cc2)C1 (stereo not given) | -19.6 |
| C=CCOC(=O)C1=C(C)NC2(O)c3ccccc3C(=O)C12O (stereo not given) | 24.6 |
| CSc1nsc(/C=C/Nc2ccc(Cl)cc2)c1C#N | -6.81 |
| Cc1ccc(C(C[N+](=O)[O-])c2c(C)[nH]n(-c3ccccc3)c2=O)cc1 (stereo not given) | -20.8 |
| COC(=O)c1ccc(Cl)c(NC(=O)CN2CCN(Cc3ccccc3)CC2)c1 | -9.15 |
| COc1ccc(CN2C(=O)c3ccccc3C(/C=N\OCc3ccc(F)cc3)C2=O)cc1 (stereo not given) | 3.35 |
| c1ccc(-c2csc3ncnc(NCCCN4CCOCC4)c23)cc1 | -1.85 |
| COc1ccccc1N1C(C)=CC(=C(C#N)c2nc3ccccc3s2)C=C1C | -2.35 |
| Nc1c(NCc2ccccc2F)c(=O)[nH]c(=O)n1Cc1ccccc1 | 33.1 |
| Cc1ccc(NC2=C(N3CCCCC3)C(=O)c3ccccc3C2=O)cc1 | 35.4 |
| Cc1noc(NS(=O)(=O)c2ccc(NC(=O)CCCOc3ccc(Cl)cc3Cl)cc2)c1C | -12.1 |
| CCc1ccc(S(=O)(=O)/N=C2/C=C(Sc3ncn[nH]3)C(=O)c3ccccc32)cc1 | 17.2 |
| O=C(CN1C(=O)C2CC=CCC2C1=O)Nc1nnc(SCc2ccc(Cl)cc2)s1 (stereo not given) | -4.26 |
| COc1ccc(-n2nc3ccccc3n2)cc1 | -5.75 |
| CC1=CC(=C(C#N)c2nc3ccccc3s2)C=C(C)N1c1ccc(F)cc1 | 8.34 |
| O=C1c2ccccc2C(=O)C12OC2c1cccc2ccccc12 (stereo not given) | 80.3 |
| CCCCn1c(N)c(NCCC(C)C)c(=O)[nH]c1=O | 33 |
| S=c1[nH]nc(-c2ccccc2)n1/N=C/C=C/c1ccco1 | 3.47 |
| Cc1c(Br)cc(C(=O)OC2CCN(C)CC2)c(C)c1C | 0.211 |

| Compound | inhibition [%] |
| --- | --- |
| O=C(OCC1O[C@@H](OC(=O)c2cc(O)c(O)c(O)c2)[C@@H](OC(=O)c2cc(O)c(O)c(O)c2)[C@@H](OC(=O)c2cc(O)c(O)c(O)c2)[C@@H]1OC(=O)c1cc(O)c(O)c(O)c1)c1cc(O)c(O)c(O)c1 (stereo not given in full) | 72.5 |
| O=C(NC(C(=O)O)c1ccccc1)c1ccc(S(=O)(=O)N2CCOCC2)cc1 (stereo not given) | -10.8 |
| Cc1ccc(C(c2sc3nc(C)nn3c2O)N2CCOCC2)cc1 (stereo not given) | -10.3 |
| COc1ccc2c(c1)c(=O)cc(C)n2CC(=O)NCc1ccco1 | -3.64 |
| Cc1ccc(NC2=C(NCCO)C(=O)c3ccccc3C2=O)cc1 | 7.47 |
| COc1ccccc1-c1c(C)nn2c(N3CCCCCC3)cc(C)nc12 | -1.28 |
| Cc1ccc(NC2=C(N3CCOCC3)C(=O)c3ccccc3C2=O)cc1 | 18 |
| Cc1ccccc1/[N+]([O-])=C/c1ccncc1 | 15.6 |
| N[C@@H](C(=O)N[C@@H]1C(=O)N2C(C(=O)O)=C(Cl)CS[C@H]12)c1ccccc1 | -8.78 |
| CN(CC(=O)N1CCCc2c1c(=O)oc1ccc(O)cc21)Cc1ccccc1 | -1.35 |
| CCc1cc[n+](C2=C([O-])c3ccccc3C(=O)/C2=N\S(=O)(=O)c2cccs2)cc1 | 2.75 |
| O=C(NCc1ccccc1)C1CCCN1S(=O)(=O)c1cccc2cccnc12 (stereo not given) | -2.68 |
| CCN(CC)CCCNC(=O)Cc1c(C(=O)O)n(C)c2ccccc12 | -8.3 |
| CCC(=O)Nc1nonc1-c1nc2ccccc2n1CCC(C)C | -8.12 |
| Cc1ccc(N2C(=O)[C@@H]3[C@H](C2=O)C2c4ccccc4C=CN2[C@@H]3C(=O)c2ccco2)cc1 (stereo not given in full) | -1.17 |
| Cc1csc(N2CCc3ccccc32)n1 | -9.56 |
| O=C(/C(=C(\[O-])c1ccccc1)[n+]1ccc2ccccc2c1)c1ccccc1 | -13.2 |
| CCOc1cc(CNc2ccc(N3CCCC3)cc2)cc(Cl)c1OC | -6.54 |
| CCN1CCN(CCCOc2ccc(-c3ccccc3)cc2)CC1 | -0.391 |
| CCN(CC)c1ccc(NC(=O)c2cccc(OC)c2)c(C)c1 | -4.28 |
| COc1cc(NCCCCCCCN)c2ncccc2c1 | 56.5 |
| CCOC(=O)/C(N=Nc1ccc(F)cc1)=C(/O)c1ccc([N+](=O)[O-])cc1 | -5.66 |
| CC(C)N(C(=O)COc1ccc(Br)cc1Cl)C(C)C | -12.6 |
| CCN(CC)c1ccc(/C=N/Nc2ccccc2)c(O)c1 | -13.5 |

Reference: PubChem BioAssay AID1261 (University of Pittsburgh Molecular Library Screening Center, 2008)
